Measurements reported in patent US7554012B2, “Plants and plant cells exhibiting resistance to AMPA, and methods for making the same” (priority 1998, dated 2009).

What was measured:
[1] = system: Achromobacter sp. strain LBAA; assay: Glyphosate degradation pathway in resting cells
Description: The glyphosate degradation pathway was characterized in resting cells of glyphosate-grown Achromobacter sp. strain LBAA according to the following procedure. Cells from a 100 ml culture of LBAA, grown in DF3S medium containing glucose, gluconate and citrate as carbon sources and with thiamine and Yeast Extract (0.01%) to supply trace requirements and with glyphosate at 0.2 mM as a phosphorous source, were harvested at a cell density of 200 Klett units, washed twice with 20 ml of DF3S medium and the equivalent of 20 ml of cells were resuspended in […] of the same medium containing [^14C]glyphosate (2.5 ml of 52 mCi/mmol, Amersham; CFA.745). The cell mix was incubated at 30° C. with shaking and 20 ml samples were withdrawn at various intervals. The samples were centrifuged to separate the cells from the broth supernatant. Both the supernatant and cell pellets were analyzed by HPLC.
Samples prepared in this way were analyzed by strong anion exchange (SAX) HPLC with radioisotope label detection to determine their levels of [^14C]-AMPA and N-acetyl-[^14C]-AMPA. Samples were injected using a Waters WISP autoinjector. Chromatographic profiles and quantitative data were collected using MACS2, Monsanto's automated chromatography data collection system. A Spherisorb S5 SAX, 250 mm×10 mm column, or an Alltech 5 micron, 250 mm×10 mm SAX column was used for the analyses. Solvents used were designated as solution A and solution B. Solution A contained 0.005M KH2PO4 adjusted to pH 2.0 with H3PO4 in 4% methanol. Solution B contained 0.10 M KH2PO4 adjusted to pH 2.0 with H3PO4 in 4% methanol. Each sample run time consisted of a step gradient program with an eluent flow rate of 3 ml per minute and a scintillation fluid (tradename ATOMFLOW, No. NEN-995 obtained from Packard Instruments) flow rate of 9 ml per minute. The HPLC solvent profile for distinguishing [^14C]-AMPA from N-acetyl-[^14C]-AMPA in each sample analyzed was represented by 100% solvent A at times zero through 5 minutes, then solvent B at 100% at time 5 minutes through 15 minutes, then 100% solvent A through 20 minutes at which time the column is prepared to receive another sample.
Cell pellets were first resuspended in DF3S medium made acidic by addition of 0.65N HCl, boiled for 5 minutes, then centrifuged briefly to provide a solution phase for HPLC analysis. Supernatants were treated similarly prior to HPLC analysis.
The GOX mediated glyphosate degradation pathway was elucidated further in a subsequent experiment where the metabolism of [^14C]AMPA was compared to that of [^14C]glyphosate as indicated above in resting cells harvested at 165 Klett units and resuspended at the equivalent of 15 ml cells per 100 ml DF3S medium. The samples were analyzed by HPLC and consisted of whole cultures acidified and treated as described above.

female gametes = settings: under optimal conditions; cited from earlier work
[2] = system: tobacco lines 33476, 36779, 37235; assay: [^14C]-glyphosate metabolism in R1 tobacco plants; assay type: in vivo
Excerpt: Seed from Ro transformation events were obtained after self crossing in growth chamber conditions. Ro seed were cured and planted to generate R1 progeny. Source leaves of R1 progeny at the five leaf stage were exposed to [^14C]-glyphosate by spotting a 2 microliter sample onto each vein (50 microliters of [^14C]-glyphosate Na+ salt, 517,000 dpm/microgram, 0.42 microgram/microliter mixed with 10 microliters of glycerol). Each leaf received several spots depending on the number of veins on that leaf. Three days later 15 additional 2 microliter spots were applied to each leaf. Two weeks later, five 2 microliter spots were applied to each of two leaves on each plant. These were new leaves and were not the older leaves to which glyphosate was initially applied. Five days after this last application, about 300 milligrams of tissue was sampled from two sink leaves on each plant. The samples from each plant were homogenized in separate 1 ml volumes of deionized water, centrifuged at 9,000 RPM in a microcentrifuge, and the aqueous volumes were collected and stored on ice. Extracts were analyzed by HPLC for the presence of [^14C] labeled metabolites as in Example 2. […] In addition, the lack of a bleaching effect in line 36779 after exposure to glyphosate is consistent with the presence of functional GOX and PhnO enzymes and the absence of detectable [^14C]-AMPA.

[3] = whole cultures exposed two hours

| Compound | label as AMPA [1, 3] [%] | label in the 13.2 minute peak (N-acetyl-AMPA) [1, 3] [%] | label in the methylamine/N-acetyl-methylamine peak [1, 3] [%] | female gametes left capable of fertilization (female gametes) | [^14C] labeled metabolites in sink leaf extract ([2]; line 33476 (GOX)) | [^14C] labeled metabolites in sink leaf extract ([2]; line 36779) | [^14C] labeled metabolites in sink leaf extract ([2]; line 37235) | glyphosate found within the cell ([1]; two hours incubation) | material co-eluting with the methylamine standard, of initial radioactivity in the cell contents ([1]; two hours incubation) | material co-eluting with the methylamine standard, of initial radioactivity in the supernatant ([1]; two hours incubation) | radioactivity in the glyphosate peak remaining in the supernatant, of the initial levels ([1]; two hours incubation) | label as glyphosate [1, 3] [%] |
| --- | --- | --- | --- | --- | --- | --- | --- | --- | --- | --- | --- | --- |
| NCP(=O)(O)O [AMPA, N-aminomethyl phosphonic acid] | 59 | 18 | 15 | – | – | – | – | – | – | – | – | – |
| N-phosphono-methyl-glycine [Glyphosate] | 12.5 | 30 | 25 | 40-60% | only [^14C]-AMPA | Only N-acetyl-[^14C]-AMPA | non-metabolized [^14C]-glyphosate as well as a trace but measurable amount of [^14C]-AMPA | About 3% | about 1.5% | about 5% | about 33% | 30 |
